Earlier results on one molecule are cited in patent US20120178114A1, “METHODS AND DEVICES FOR DETECTING THROMBIN GENERATION” (SUBC, INC., priority 2007, published 2012).

One may read the Km as the concentration of substrate that gives half-maximal velocity. For orientation: kcat means the maximal rate divided by the concentration of active sites.

This data set deals with thrombin (Homo sapiens, UniProt P00734). The conditions noted are these: BAEE as thrombin substrate.

Take `CCOC(=O)[C@H](CCCNC(=N)N)NC(=O)c1ccccc1` [BAEE, benzoylarginine ethyl ester]: the Km is 100 µM and the kcat was 50 s⁻¹.
